Legend:
[1] = system: MSU induced knee osteoarthritis pain; experiment: MSU induced knee osteoarthritis pain model, hind leg paw-pressure ratio; assay type: in vivo, rat; set-up: key to AUC of time-course variation of anti-nociceptive activity: AUC of the time course of anti-nociceptive activity as % MPE; conditions: for activity lasting-time: orally administered
Procedure: Experimental animal, male SD type rats, weighing the body weight in the range of 170 to 190 g, were used for the studies. The animals had been kept under constant conditions (room temperature 23±1° C., humidity 52±2%, 12 hours light-and-dark cycle having light time 7:00 to 19:00 and dark time 19:00 to 7:00) until used for an experiment. The animals were fed the mouse solid diet (F2, Funabashi farm. Funabashi, Japan) with unrestricted tap water intake, and kept in captivity for at least more than two days in a laboratory.
Any test drugs were dissolved in Ringer's solution (Fuso Yakuhin) to be used.
MSU was suspended with the suspension solution (10% of polyoxyethylene sorbitan mono-oleate (Tween 80: Nakarai Tesk) as 0.1 g per 1 mL. The animal was anesthetized with diethyl ether and after the surface of its left hind leg knee joint was wiped with 70% ethanol cotton, a porous administration of the suspension solution above noted was conducted into the cavity of let hind leg knee joint.
Pressures to both hind leg paw were measured using a paw-pressure measurement apparatus and recorded. Measurement time at respective times was 4.5 seconds. Calculated paw-pressure ratio (ppr) is a value calculated by dividing the pressure on the left hind leg by the pressure on the right hind leg according to the measured pressures on both hind legs.
The anti-nociceptive effect was evaluated quantitatively by calculating % MPE (% of maximum possible effect) according to the following formula. [formula]
In the formula, ppr 0 and ppr 1 are respective paw-pressure ratios on both hind legs before and after administration. ED50 value of anti-nociceptive activity was calculated using GraphPad Prism data-graph processing software version 4.0, San Diego, Calif., USA.
The strength of anti-nociceptive activity was represented by calculating the time-course variation of anti-nociceptive activity AUC using GraphPad Prism noted above.
Paw-pressure was measured twice at 4 hours after administration to provide ppr by calculation and the average of those values was both hind leg paw-pressure ratio before the drug administration. After the measurement of both hind leg paw-pressure before the drug administration, 0.1 mL of Ringer's solution or a test drug in Ringer's solution per 100 g rat body weight was orally administered, and then a paw-pressure was measured once every unit time after the oral administration.
Statistical processing was conducted using GraphPad Prism. After the two-way layout dispersion analysis, the hazard-ratio of P<0.05 was decided to be a significant difference according to Bonferroni post-test. The hazard-ratios were distinguished into less than 5% (P<0.05) and less than 1% (P<0.01) and represented as “*” and “**” in the same manner conducted for the Tail-flick method.

[2] = system: nerve damage model animal; experiment: Allodynia experiment, nerve damage model (partial sciatic nerve ligation), Von Frey filament method; assay type: in vivo, mouse; conditions: for anti-allodynia effect in animals with ligated sciatic nerve: s.c. administration, Von Frey filament
Procedure: Further the anti-nociceptive activity test using a nerve damage model envisioning a neuropathic pain was performed.
Preparation of the Nerve-Damage Model was Conducted According to the model created by Seltzer (partial sciatic nerve ligation: RSL model).
Specifically the amount of 0.1 mL/10 g of Nembutal solution 7 times diluted with Ringer's solution (Fuso Pharmaceutical Kogyo) was injected into the peritoneal cavity of mouse using 26 gauge needle (Termo) to give anesthetic. The animal was lain on its stomach, its femoral skin was cut open to incise through the fascia, the part between the heads of the biceps femoris was cut and then its sciatic nerve was fixed. The ⅓ to ½ part of the […] around the sciatic nerve detached without damaging was completely ligated with a nylon suture thread No. 9 (Natsume Seisakusho) using a vascular needle 000 spring hole (Natsume Seisakusho). Further the cut skin was sutured with the silk thread No. 2 (Natsume Seisakusho) using a surgical needle 1 spring needle (Natsume Seisakusho). After the operation, the mice had been kept until the testing date under the above conditions.
The measurement of allodynia effect on the nerve-damage model animals was conducted according to the Von Frey filament method 7 days after the nerve ligation.
Then a few kinds of filaments having different strength of stimulus (Touch-test Sensory Evaluator Instruction North Coast Medical Inc.) were pushed perpendicularly on the sole of the hinder leg until the filament was bent.
Further, for comparison, the left lower leg of the animal without nerve-damage was also stimulated and the threshold values were measured. AUCs (the area surrounded with the time-reaction curve and the base line of a graph showing the relationship between the time after administration (time-course) and % MPE) were calculated from the obtained results. Antiallodynia activity obtained from the AUC divided by the measuring time was compared as strength of activity per unit of the time period.

[3] = rat, MSU knee model, oral 15 mg/kg
[4] = rat, MSU knee model, oral 30 mg/kg

Row | Molecule | activity peak ([1]; rat, MSU knee model, oral) [min] | AUC of time-course variation of anti-nociceptive activity [1, 3] | AUC of time-course variation of anti-nociceptive activity [1, 4] | AUC of time-course variation of anti-nociceptive activity ([1]; rat, MSU knee model, oral 60 mg/kg) | ED50 ([1]; rat, MSU knee model, oral, %MPE, range in parentheses, read-out: ED50 value at activity peak) [mg/kg] | activity lasting-time ([1]; rat, MSU knee model) [min] | anti-allodynia effect in animals with ligated sciatic nerve [2] | anti-nociceptive activity compared with morphine and oxycodone ([1]; knee osteoarthritis model, FIGS. 77 and 78) | activity lasting-time, times longer than for morphine ([1]; rat, MSU knee model, oral) [times] | AUC of time-course variation of anti-nociceptive activity ([1]; rat, MSU knee model, oral 7.5 mg/kg) | ED50 value at activity peak ([1]; rat, MSU knee model, oral, %MPE, range in parentheses) | anti-nociceptive activities, times stronger than for morphine ([1]; rat, MSU knee model, oral, from ED50 of AUCs) [times] | ED50 of AUCs ([1]; rat, MSU knee model, oral, range in parentheses) | anti-nociceptive activity lasting-times, times longer than for morphine ([1]; rat, MSU knee model, oral, stated after ED50 at activity peak) [times] | lasting period of anti-nociceptive activity compared with morphine ([2]; nerve damage model, s.c., at dose of equal activity)
1 | CN1CC[C@]23c4c5ccc(O)c4O[C@H]2[C@@H](O)C=C[C@H]3[C@H]1C5 [Morphine] | 90 | 1724 | 4485 | 13883 | 37.2 | 300 | significantly decreased |  |  |  |  |  |  |  | 
2 | Iminoethyl-[Tyr]-[D-Met(O)]-[Phe]-[N-MeβAla]-NHCH3 [SS8225-07] | 120 | 7894 | 20162 |  |  | 360 | decrease of anti-allodynia effect was not observed at any doses | stronger than morphine, and stronger than or equal to oxycodone | 1.2 | 2919 | 16.95 (3.17-90.59) mg/Kg | ~2.1 | 40.38 (31.08-52.48) mg/kg | 2.2 | about twice longer

Reference: patent US20080009448A1, “Peptide Derivative” (priority 2006, published 2008)
